From paper PMC7556816, “Structural and mechanistic analysis of ATPase inhibitors targeting mycobacterial DNA gyrase” (Journal of Antimicrobial Chemotherapy, 2020)

Tested on: M. tuberculosis gyrase, GyrB Arg141 mutants
Type: biochemical, Mycobacterium tuberculosis

**Q.** `CNc1cc(F)cc2c1[nH]c1nc(Oc3cnc(C)nc3)nc(N3C[C@@H]4[C@@H](N)[C@@H]4C3)c12` [Redx03863] was tested. Which “inhibition of supercoiling of Arg141 mutant gyrase” value did it give?
**A.** The value was “susceptible to inhibition”.

**Q.** How did the “inhibition of supercoiling of Arg141 mutant gyrase” value turn out when `CO[C@@H]1[C@@H](OC(N)=O)[C@@H](O)[C@H](Oc2ccc3c(O)c(NC(=O)c4ccc(O)c(CC=C(C)C)c4)c(=O)oc3c2C)OC1(C)C` [novobiocin, reference compound] was run?
**A.** The value was “at least partially inhibited”.
